{"source": "patent US7011846B2", "about": "“Oral capsule formulation with increased physical stability” (Shire Laboratories, Inc., priority 2001, dated 2006)", "test": "Capsule shell integrity with NMP alone or NMP:stabilizing agent 1:1 (wt/wt), banded capsules, observed for leakage and shell cracking", "assay_type": "physicochemical", "conditions": "NMP alone filled into size 0 hard gelatin capsule", "procedure": "NMP was filled into a size 0 hard gelatin capsule in order to determine the effect of NMP on the integrity of the shell.\nTo stabilize the capsule shell in presence of solution of NMP, various capsule stabilizing agents were studied for their stability inducing properties. Stabilizing agents were each incorporated into NMP separately. Formulations were prepared by mixing or dissolving each excipient in a vial containing NMP with a 1:1 ratio (wt/wt). The solutions were then encapsulated into size 0 hard gelatin capsules and banded to prevent leakage of the fill contents. Capsules were stored at ambient environment and observations were made at regular time intervals for leakage and capsule shell cracking.", "data": [{"compound": "CN1CCCC1=O", "note": "[#1, N-methyl-2-pyrrolidone]", "values": [{"measurement": "Effect of NMP on the integrity of the capsule shell", "value": "Within minutes, the capsule cracked causing the content to leak out"}]}]}
